# Laboratory results: patent US6528534B2 (Millennium Pharmaceuticals, Inc., priority 1995, dated 2003)
# Counter-ions that a name gives are not always drawn.
# Key:
# [1] = tested on: human platelet-rich plasma; experiment: Platelet aggregation assay, Aggregation-Human PRP/ADP; assay type: cell-based; conditions: inhibition of ADP-induced aggregation of human platelet-rich plasma
# Procedure: No. 2—The Platelet Aggregation Assay
# In addition to the ELISA IIb-IIIa assay previously described the Aggregation-Human PRP/ADP Assay is useful for evaluating therapeutic compounds.
# Platelet-rich plasma was prepared from healthy human volunteers for use in determining inhibition of platelet aggregation by the compounds. Blood was collected via a 21-gauge butterfly cannula, using a two-syringe technique into 1/10 volume of 3.8% trisodium citrate.
# Platelet-rich plasma was prepared at room temperature by centrifugation of the citrated whole blood at 100×g for twelve minutes. The platelet rich plasma contained approximately 200-400,000 platelets/μl.
# Platelet-poor plasma was prepared by centrifugation of citrated whole blood at 12,000×g for 2 minutes.
# Platelet aggregation was assayed in a 4-channel platelet aggregatiob profiler (PAP-4, Biodata, Hatboro, Pa.) according to the manufacturers directions. Inhibition of platelet aggregation was studied by adding varying amounts of adenosine diphosphate (ADP) to stirred human platelet-rich plasma. Specifically, the human platelet-rich plasma was incubated with the compound being tested for 1 minute at 37° C. prior to the addition of a variety of aggregating agents most often ADP 5 μM, but also 1 μg/ml collagen, 1 μM U46619 and 0.3 μM platelet activating factor.
# [2] = biological target: T1, GPIIb-IIIa (Homo sapiens, UniProt P05106+P08514); experiment: ELISA IIb-IIIa assay (fibrinogen binding to immobilized GPIIb-IIIa); conditions: inhibition of biotinylated fibrinogen binding to plate-coated purified platelet GPIIb-IIIa receptor
# T1 construct: Purified platelet GPIIb-IIIa receptor was prepared as described by Fitzgerald; from tissue; host or cells: platelets
# T1 sequence (P08514 32-887 limits assumed): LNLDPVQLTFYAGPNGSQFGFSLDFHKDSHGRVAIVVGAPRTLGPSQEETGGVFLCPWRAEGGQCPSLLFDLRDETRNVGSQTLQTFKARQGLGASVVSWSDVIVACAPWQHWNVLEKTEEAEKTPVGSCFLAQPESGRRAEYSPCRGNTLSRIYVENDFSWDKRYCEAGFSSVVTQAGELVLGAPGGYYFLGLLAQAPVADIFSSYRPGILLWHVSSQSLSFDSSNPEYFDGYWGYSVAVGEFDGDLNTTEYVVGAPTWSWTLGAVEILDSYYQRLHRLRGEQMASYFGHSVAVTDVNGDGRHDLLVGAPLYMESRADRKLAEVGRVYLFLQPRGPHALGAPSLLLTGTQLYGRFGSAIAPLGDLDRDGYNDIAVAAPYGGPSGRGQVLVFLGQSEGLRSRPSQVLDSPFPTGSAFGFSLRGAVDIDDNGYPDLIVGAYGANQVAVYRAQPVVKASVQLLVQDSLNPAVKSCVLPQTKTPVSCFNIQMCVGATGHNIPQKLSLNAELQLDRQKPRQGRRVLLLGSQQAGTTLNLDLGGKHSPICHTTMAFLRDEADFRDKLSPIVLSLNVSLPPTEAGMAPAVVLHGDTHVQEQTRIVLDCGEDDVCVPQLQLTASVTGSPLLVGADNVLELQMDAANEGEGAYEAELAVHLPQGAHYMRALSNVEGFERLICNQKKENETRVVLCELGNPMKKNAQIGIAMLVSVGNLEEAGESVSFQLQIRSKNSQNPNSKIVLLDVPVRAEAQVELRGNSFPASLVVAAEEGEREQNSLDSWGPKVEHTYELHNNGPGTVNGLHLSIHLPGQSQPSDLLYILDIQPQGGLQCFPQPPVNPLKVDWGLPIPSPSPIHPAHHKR
# T1 sequence (P08514 891-1039 limits assumed): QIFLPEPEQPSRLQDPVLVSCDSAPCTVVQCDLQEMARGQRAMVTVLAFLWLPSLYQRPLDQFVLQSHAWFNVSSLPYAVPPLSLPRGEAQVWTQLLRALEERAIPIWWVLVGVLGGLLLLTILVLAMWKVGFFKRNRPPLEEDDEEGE
# T1 sequence (P05106 27-788): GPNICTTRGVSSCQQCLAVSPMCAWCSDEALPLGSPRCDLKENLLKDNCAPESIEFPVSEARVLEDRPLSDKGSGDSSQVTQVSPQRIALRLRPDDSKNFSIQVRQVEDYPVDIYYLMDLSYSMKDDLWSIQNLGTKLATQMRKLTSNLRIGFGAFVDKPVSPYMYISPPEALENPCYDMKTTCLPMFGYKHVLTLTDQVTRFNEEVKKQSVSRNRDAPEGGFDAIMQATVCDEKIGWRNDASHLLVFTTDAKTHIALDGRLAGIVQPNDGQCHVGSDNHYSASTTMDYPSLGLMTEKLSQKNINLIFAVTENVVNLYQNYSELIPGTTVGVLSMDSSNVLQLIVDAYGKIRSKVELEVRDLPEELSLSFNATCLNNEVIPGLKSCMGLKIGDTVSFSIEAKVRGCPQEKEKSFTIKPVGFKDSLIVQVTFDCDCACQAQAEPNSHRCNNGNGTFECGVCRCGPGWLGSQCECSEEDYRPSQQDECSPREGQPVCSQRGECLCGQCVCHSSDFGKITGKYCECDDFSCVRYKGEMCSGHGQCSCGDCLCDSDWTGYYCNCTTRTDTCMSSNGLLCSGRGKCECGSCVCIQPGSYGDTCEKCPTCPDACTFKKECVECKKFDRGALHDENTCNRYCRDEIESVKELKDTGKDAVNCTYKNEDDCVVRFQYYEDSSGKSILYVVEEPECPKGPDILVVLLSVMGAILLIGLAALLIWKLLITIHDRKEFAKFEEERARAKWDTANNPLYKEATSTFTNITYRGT
# Procedure: No. 1—The ELISA IIb-IIIa Assay:
# In the following assay, GPIIb-IIIa is prepared in purified form, by a method such as described by Fitzgerald, L. A., et al., Anal Biochem (1985) 151:169-177, (the disclosure of which is incorporated herein by reference). GPIIb-IIIa is coated onto microtiter plates. The coated support is then contacted with fibrinogen and with the test material (e.g., compounds of Formula I) and incubated for a sufficient time to permit maximal binding of fibrinogen to the immobilized GPIIb-IIIa. Fibrinogen is typically provided at a concentration of about 5-50 nM and the test material can, if desired, be added at a series of dilution. Typical incubations are 2 to 4 hours at 25° C., the time and temperature being interdependent.
# After incubation, the solution containing the fibrinogen and test material is removed and the level of binding of fibrinogen measured by quantitating bound fibrinogen to GPIIb-IIIa. Any suitable means of detection may be used, but it is convenient to employ labeled fibrinogen, for example using biotinylated labels. Such methods are well known in the art.
# A. Description of Assays—Plate Assays
# Purified platelet GPIIb-IIIa receptor was prepared as described by Fitzgerald, L. A., et al., Anal Biochem (1985) 151:169-177 (1985). Vitronectin receptor was prepared as described by Smith, J. W., J. Biol Chem (1988) 263:18726-18731. After purification, the receptors were stored in 0.1% Triton X-100 at 0.1-1.0 mg/ml.
# The receptors were coated to the wells of 96-well flat-bottom ELISA plates (Linbro EIA-Plus microtiter plate, Flow Laboratories) after diluting 1:200 with a solution of 20 mM Tris-HCl, 150 mM NaCl, 1 mM CaCl2, pH 7.4, to reduce the Triton X-100 concentration to below its critical micellar concentration and adding an aliquot of 100 ul to each well. The wells were all allowed to incubate overnight at 4° C., and then aspirated to dryness. Additional sites were blocked by the addition of bovine serum albumin (BSA) at 35 mg/ml in the above buffer for two hours at 30° C. to prevent nonspecific binding. The wells were then washed once with binding buffer ([…] Tris-HCl, 100 mM NaCl 2 mM CaCl2, 1 mg/ml BSA).
# The corresponding ligands (fibrinogen, von Willebrand Factor, or vitronectin) were conjugated to biotin using commercially available reagents and standard protocols. The labeled ligands were added to the receptor-coated wells at final concentration of 10 nM (100 ul/well) and incubated for 3 hours at 25° C. in the presence or absence of the test samples. After incubation, the wells are aspirated to dryness and bound ligand is quantitated.
# The bound protein is detected by the addition of antibiotin antibody conjugated to alkaline phosphatase followed by addition of substrate (p-nitrophenyl phosphate), and determination of the optical density of each well at […]. Decreased color development is observed in wells incubated with test samples which inhibit binding of ligand to receptor.
SMILES,IC50 [1] [nM],IC50 [2] [nM],melting point [°C]
"N=C(N)c1ccc(C(=O)N2CCC3(CC2)C(=O)N(CC(=O)O)C(=O)N3Cc2ccccc2)cc1 [Example 13, Trifluoroacetate]",> 100000,,
"O=C(O)CN1CCC2(CCN(CCc3ccncc3)CC2)CC1 [Example 20, (9-(2-(Pyridin-4-yl)ethyl)-3,9-diazaspiro[5.5]undec-3-yl)acetic Acid Bistrifluoroacetate]",> 100000,,
"N=C(N)c1ccc(N2CC3(CCN(CCCC(=O)O)CC3)OC2=O)cc1 [Example 4, 4-(3-(4-(Aminoiminomethyl)phenyl)-2-oxo-1-oxa-3,8-diaza-5 spiro[4.5]dec-8-yl)butanoic Acid Bistrifluoroacetate]",3000,,
N=C(N)c1ccc(C2=NOC3(CCN(CC(=O)O)CC3)C2)cc1 [Example 6],4000,,
"N=C(N)c1ccc(C(=O)N2CCC3(CCC(CC(=O)O)CC3)CC2)cc1 [Example 2, (3-(4-(Aminoiminomethyl)benzoyl)-3-aza-spiro[5.5]undec-9-yl)acetic Acid Hydrochloride]",410,8.2,
"O=C(O)CC1CCC2(CC1)CCN(CCc1ccncc1)CC2 [Example 23, (3-(2-(Pyridin-4-yl)ethyl)-3-azaspiro[5.5]undec-9-yl)acetic Acid]",> 100000,,
"O=C(O)CC1CCC2(CC1)CCN(CCC1CCNCC1)CC2 [Example 25, (3-(2-(Piperidin-4-yl)ethyl)-3-azaspiro[5.5]undec-9-yl)acetic Acid]",> 10000,,
"O=C(O)CN1C(=O)CC2(CCN(CCc3ccncc3)CC2)CC1=O [Example 26, (9-(2-(Pyridin-4-yl)ethyl)-2,4-dioxo-3,9-diazaspiro[5.5]undec-3-yl)acetic Acid Trifluoroacetate]",> 100000,,
N=C(N)c1ccc(C2=NOC3(CCN(CCCC(=O)O)CC3)C2)cc1 [Example 8],320,,
"N=C(N)c1ccc(C(=O)N2CCC3(CCN(C(=O)CCCC(=O)O)CC3)CC2)cc1 [Example 42, 5-((3-(4-Aminoiminomethyl)benzoyl)-3,9-diaza-spiro[5.5]undec-9-yl)-5-oxopentanoic Acid]",10000,3500,
"N=C(N)c1ccc(C(=O)N2CCC3(CC2)NC(=O)N(CCCC(=O)O)C3=O)cc1 [Example 21, Trifluoroacetate]",> 10000,,
"CCOC(=O)CCN1CCC2(CC1)CC(c1ccc(C(=N)N)cc1)=NO2 [Example 14, Hydrochloride]",640,,
"N=C(N)c1ccc(C(=O)N2CCC3(CC2)CN(CC(=O)O)C(=O)O3)cc1 [Example 30, (8-(4-(Aminoiminomethyl)benzoyl)-2-oxo-1-oxa-3,8-diaza-spiro[4.5]dec-3-yl)acetic Acid]",80000,29000,157 to 159
"N=C(N)c1ccc(CC(=O)N2CCC3(CC2)CN(CC(=O)O)C(=O)O3)cc1 [Example 31, (8-(2-(4-Aminoiminomethyl)acetyl)-2-oxo-1-oxa-3,8-diaza-spiro[4.5]dec-3-yl)acetic Acid.]",1110,74,
"N=C(N)c1ccc(C(=O)N2CCC3(CC2)CN(CCCC(=O)O)C(=O)CO3)cc1 [Example 12, Hydrochloride]",> 10000,,
N=C(N)c1ccc(C2=NOC3(CCN(C(=O)CCCC(=O)O)CC3)C2)cc1 [Example 17],84,,
"CCOC(=O)CC1CCC2(CC1)CCN(CCC1CCNCC1)CC2 [Example 24, Ethyl (3-(2-(Piperidin-4-yl)ethyl)-3-azaspiro[5.5]undec-9-yl)acetate]",> 100000,,

SMILES,IC50 [1] [nM],IC50 [2] [nM],melting point [°C]
"N=C(N)c1ccc(C(=O)N2CCC3(CCN(C(=O)CCC(=O)O)CC3)CC2)cc1 [Example 41, 4-((3-(4-Aminoiminomethyl)benzoyl)-3,9-diaza-spiro[5.5]undec-9-25 yl)-4-oxobutanoic Acid]",14000,15000,
"N=C(N)c1ccc(C(=O)NC2CCC3(CC2)CN(CC(=O)O)C(=O)O3)cc1 (stereo not drawn) [Example 36, (8-(4-(Aminoiminomethyl)benzamido)-2-oxo-1-oxa-3-aza-spiro[4.5]dec-3-yl)acetic Acid]",510,170,280 to 284
N=C(N)NCCCC(=O)N1CCC2(CC1)CN(CC(=O)O)C(=O)O2 [Example 37],52000,19000,
"CCOC(=O)CC1CCC2(CC1)CCN(CCc1ccncc1)CC2 [Example 22, Ethyl (3-(2-(Pyridin-4-yl)ethyl)-3-azaspiro[5.5]undec-9-yl)acetate]",> 100000,,
"CCOC(=O)CC1CCC2(CC1)CCN(C(=O)c1ccc(C(=N)N)cc1)CC2 [Example 1, Ethyl (3-(4-(Aminoiminomethyl)benzoyl)-3-aza-spiro[5.5]undec-9-yl)acetate Hydrochloride]",100000,> 10000,
"O=C(O)CN1CCC2(CCN(CCC3CCNCC3)CC2)CC1 [Example 27, (9-(2-(Piperidin-4-yl)ethyl)-3,9-diazaspiro[5.5]undec-3-yl)acetic Acid Tristrifluoroacetate]",100000,,
"N=C(N)c1ccc(COC2CCC3(CC2)CN(CC(=O)O)C(=O)O3)cc1 (stereo not drawn) [Example 34, (8-(4-(Aminoiminomethyl)benzyloxy)-2-oxo-1-oxa-3-aza-spiro[4.5]dec-3-yl)acetic Acid]",1290,350,
"CCOC(=O)CCCN1CCC2(CC1)CC(c1ccc(C(=N)N)cc1)=NO2 [Example 7, Hydrochloride]",2800,,
"N=C(N)c1ccc(C2=NOC3(CCN(CCC(=O)O)CC3)C2)cc1 [Example 15, 4-(3-(4-(Aminoiminomethyl)phenyl)-1-oxa-2,8-diaza-spiro[4.5]dec-2-en-8-yl)propanoic Acid]",110,,
N=C(N)NCCCCCC(=O)N1CCC2(CC1)CN(CC(=O)O)C(=O)O2 [Example 39],12000,2700,
"CCOC(=O)CCCC(=O)N1CCC2(CC1)CC(c1ccc(C(=N)N)cc1)=NO2 [Example 16, Ethyl 5-(3-(4-(Aminoiminomethyl)phenyl)-1-oxa-2,8-diaza-spiro[4.]dec-2-en-8-yl)-5-oxopentanoate Hydrochloride]",200,,
"N=C(N)c1ccc(CC(=O)NC2CCC3(CC2)CN(CC(=O)O)C(=O)O3)cc1 (stereo not drawn) [Example 35, (8-(2-(4-(Aminoiminomethyl)phenyl)acetamido)-2-oxo-1-oxa-3-aza-spiro[4.5]dec-3-yl)acetic Acid]",770,190,193 to 196
N=C(N)NCCCCC(=O)N1CCC2(CC1)CN(CC(=O)O)C(=O)O2 [Example 38],7000,1850,
N=C(N)c1ccc(CC(=O)N2CCC3(CC2)CCN(CC(=O)O)C(=O)O3)cc1 [Example 32],2130,200,
"N=C(N)c1ccc(C(=O)N2CCC3(CCN(CC(=O)O)C(=O)O3)CC2)cc1 [Example 33, (9-(4-(Aminoiminomethyl)benzoyl)-2-oxo-1-oxa-3,9-diaza-spiro[5.5]undec-3-yl)acetic Acid]",66000,16500,
N=C(N)c1ccc(C2=NOC3(CCN(C(=O)CCC(=O)O)CC3)C2)cc1 [Example 10],1000,,
N=C(N)c1ccc(C2=NOC3(CCN(CCCCC(=O)O)CC3)C2)cc1 [Example 19],450,,
